Data published in US20040038369A1, “Airway-specific trypsin-like enzymes and method of using the same” (priority 2000, published 2004).

Experiments:
[1] = system: HBEGF (Δ TM)-ALP; test: Cleavage of HBEGF (Δ TM)-ALP due to HAST (western blotting); assay type: biochemical, human; settings: recombinant HAST, 37° C. overnight
Protocol: 293EBNA cell strain was sowed in a density of 9×10^6 cells/10 cm dish, cultured overnight, and then transfected with the human HBEGF-expressing plasmid: pEF9-HBEGF (Δ TM)-ALP prepared in 1). 12 μg of the pEF9-HBEGF (Δ TM)-ALP was subjected to a lipofection with 75 μL of Lipofectamine 2000 (produced by GIBCO-BRL). The lipofection was carried out according to an appended manual. 72 hour later, the cells were peeled with a pipette, and then centrifuged at 3000 rpm at 4° C. for five minutes. The lysate was dissolved in 12 mL of M-PER (produced by PIERCE Corp.), subjected to an SDS-polyacrylamide gel electrophoresis under a non-reducing condition, and then blotted on a nitrocellulose membrane (produced by BIO-RAD Corp.).
The product blotted on the nitrocellulose membrane was treated with 3% BSA-containing PBS at 4° C. overnight and then reacted with the anti-human HB-EGF antibody (produced by GENZYME Corp., an antibody recognizing an EGFR-binding site) diluted with 1% BSA-containing PBS in a concentration of 1 μg/mL, at room temperature for one hour. The nitrocellulose membrane was washed with 0.05% Tween 20-containing PBS three times, and then reacted with Swine Anti-Goat Ig's-ALP antibody (produced by BIOSOURCE Corp.) diluted with 1% BSA-containing PBS in a concentration of 1 μg/mL at room temperature for one hour. […]

[2] = Enzymatic activity of mammalian ASTs transiently expressed in 293 EBNA cells; assay type: biochemical
Protocol: A forward primer and a reverse primer were prepared on gene sequences encoding the N-terminal and C-terminal of each mammalian AST, and a cDNA encoding the full-length AST was prepared by a PCR amplification using the forward primer, the reverse primer, Pyrobest DNA polymerase (produced by Takara Shuzo Co.), and an airway cDNA as a template. On the other hand, a product obtained by cleaving pcDNA3 (produced by Invitrogen Corp.) with restriction enzymes NruI and KpnI, and the promoter domain of Elongation Factor-1a (EF-1 a) from human genome were amplified by a PCR using a forward primer: […] and a reverse primer: […]. […]
Human fetal kidney-originated 293 EBNA cells (Invitrogen Corp.) were cultured in a 10 cm schale, and the about 5.8×10^6 cells were transfected with 28 μg of each expression plasmid prepared in (1) in 56 μL of LipofectAMINE 2000 (produced by GibcoBRL Corp.) according to an appended manual. […] 40 μL of the above-described assay sample was mixed with 20 μL of a synthetic substrate solution (a solution obtained by diluting a 10 mM Boc-Phe-Ser-Arg-MCA DMSO (dimethyl sulfoxide) solution with the buffer solution for the AST activity assay 50 times), and the increase of the fluorescence intensity per minute was assayed (fluorescence wavelength: 460 nm, excitation wavelength: 380 nm) to determine the enzymatic activity.

## HAST: human airway-specific trypsin-like enzyme; propeptide moiety bound to trypsin-like protein moiety via a disulfide bond
[1]
  band reactive with the anti-human HB-EGF antibody: shifted to a low molecular weight
[2]; 293 EBNA cell lysate, three days after transfection
  Cell lysate Fluorescence intensity ratio (Human:100): 100
[2]; 293 EBNA, Sup
  Sup Fluorescence intensity ratio (Human:100): 100
